Results: ChEMBL document CHEMBL3608228, “Bisacremines A-D, Dimeric Acremines Produced by a Soil-Derived Acremonium persicinum Strain” (J Nat Prod, 2015)
Active and inactive are the calls of the source. No cut-off for these calls is given here.

Tests used:
Staphylococcus aureus = assay: Antibacterial activity against Staphylococcus aureus; assay type: functional, organism-based
A549 = assay: Cytotoxicity against human A549 cells assessed as cell growth inhibition after 72 hrs by MTT assay; assay type: functional, cell-based; conditions: A549, 72 h
HeLa = assay: Cytotoxicity against human HeLa cells assessed as cell growth inhibition after 72 hrs by MTT assay; assay type: functional, cell-based
HepG2 = assay: Cytotoxicity against human HepG2 cells assessed as cell growth inhibition after 72 hrs by MTT assay; assay type: functional, cell-based; conditions: HepG2, 72 h

Structure (SMILES)	Activity (Staphylococcus aureus)	IC50 (A549)	IC50 (HeLa)	IC50 (HepG2)
Cc1ccc(/C=C/[C@@]2(C)CC[C@](C)(/C=C/C3=C[C@H](O)[C@](C)(O)C[C@@H]3O)O2)cc1	inactive	41.3 µM	9.3 µM	31.1 µM
Cc1ccc(/C=C/[C@@]2(C)CC[C@@](C)(/C=C/C3=C[C@H](O)[C@](C)(O)C[C@@H]3O)O2)cc1	inactive	> 50 µM	31.1 µM	> 50 µM
Cc1ccc(/C=C/[C@]2(C)CC[C@@](C)(/C=C/C3=C[C@H](O)[C@](C)(O)C[C@@H]3O)O2)cc1	inactive	> 50 µM	10.7 µM	> 50 µM
Cc1ccc(/C=C/[C@]2(C)CC[C@](C)(/C=C/C3=C[C@H](O)[C@](C)(O)C[C@@H]3O)O2)cc1	inactive	> 50 µM	46.1 µM	> 50 µM
